The source made the active and inactive calls. The calls are words filed in the database; no cut-off is given here.
Columns and labels:
Plasma [1] = experiment: Anticoagulant activity in human plasma assessed as prolongation of activated partial thromboplastin time at 300 uM incubated for 2 mins by aPTT reagent based assay relative to control; type: functional
Plasma [2] = experiment: Anticoagulant activity in human plasma assessed as prolongation of activated partial thromboplastin time incubated for 2 mins by aPTT reagent based assay; type: functional
Plasma kallikrein = Plasma kallikrein (Homo sapiens, UniProt P03952); experiment: Inhibition of PKal (unknown origin) using H-D-Pro-Phe-Arg-pNA-2HCl as substrate incubated for 20 mins followed by substrate addition by spectrophotometric analysis
Sequence of Plasma kallikrein (P03952 20-390 limits assumed): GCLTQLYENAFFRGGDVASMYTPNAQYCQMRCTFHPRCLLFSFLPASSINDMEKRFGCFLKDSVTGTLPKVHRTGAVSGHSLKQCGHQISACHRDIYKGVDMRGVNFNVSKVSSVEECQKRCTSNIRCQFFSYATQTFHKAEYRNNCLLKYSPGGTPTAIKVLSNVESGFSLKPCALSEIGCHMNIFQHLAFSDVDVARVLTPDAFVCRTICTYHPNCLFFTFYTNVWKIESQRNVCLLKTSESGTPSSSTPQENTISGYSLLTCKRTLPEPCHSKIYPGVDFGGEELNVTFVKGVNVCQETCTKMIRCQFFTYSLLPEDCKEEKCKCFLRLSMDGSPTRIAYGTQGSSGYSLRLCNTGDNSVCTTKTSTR
Sequence of Plasma kallikrein (P03952 391-638 limits assumed): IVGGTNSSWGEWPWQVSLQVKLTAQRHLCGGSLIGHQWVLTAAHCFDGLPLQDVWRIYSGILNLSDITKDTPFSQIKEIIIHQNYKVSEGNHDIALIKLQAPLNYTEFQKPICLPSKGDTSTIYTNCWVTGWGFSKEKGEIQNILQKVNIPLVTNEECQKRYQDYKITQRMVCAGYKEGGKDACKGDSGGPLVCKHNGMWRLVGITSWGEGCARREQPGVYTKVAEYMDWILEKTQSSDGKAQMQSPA

Prothrombin = Prothrombin (Homo sapiens, UniProt P00734); experiment: Inhibition of thrombin (unknown origin) using H-D-Phe-Pip-Arg-pNA-2HCl as substrate incubated for 20 mins followed by substrate addition by spectrophotometric analysis
Plasma [3] = experiment: Anticoagulant activity in non-activated human plasma at 10 to 25 uM measured after 30 mins; type: functional, cell-free; conditions: dose 10-25 µM
[4] = Selectivity index, ratio of IC50 for PKal (unknown origin) to IC50 for FXIIa (unknown origin)
[5] = target: T1, Coagulation factor XII (Homo sapiens) (UniProt P00748); experiment: Binding affinity to FXIIa (unknown origin) assessed as inactivation rate using H-D-Pro-Phe-Arg-pNA.2HCl as substrate by spectrophotometric analysis
T1 sequence (whole entry): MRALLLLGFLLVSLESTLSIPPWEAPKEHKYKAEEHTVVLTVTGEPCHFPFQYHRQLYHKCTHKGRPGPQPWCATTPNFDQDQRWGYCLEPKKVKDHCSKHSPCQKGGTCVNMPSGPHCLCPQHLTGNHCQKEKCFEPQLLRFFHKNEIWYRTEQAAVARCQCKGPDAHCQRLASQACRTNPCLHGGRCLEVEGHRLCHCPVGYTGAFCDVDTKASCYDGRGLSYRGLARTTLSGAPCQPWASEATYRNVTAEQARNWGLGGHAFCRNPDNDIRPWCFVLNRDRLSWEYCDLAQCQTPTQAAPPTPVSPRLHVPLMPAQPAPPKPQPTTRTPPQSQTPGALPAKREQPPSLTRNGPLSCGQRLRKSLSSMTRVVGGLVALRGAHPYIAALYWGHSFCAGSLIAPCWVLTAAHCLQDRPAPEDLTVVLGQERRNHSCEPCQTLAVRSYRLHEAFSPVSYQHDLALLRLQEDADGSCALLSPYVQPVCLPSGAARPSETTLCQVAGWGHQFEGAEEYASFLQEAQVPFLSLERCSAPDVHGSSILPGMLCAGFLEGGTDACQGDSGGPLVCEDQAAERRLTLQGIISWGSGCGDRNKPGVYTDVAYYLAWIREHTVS

Coagulation factor XI = Coagulation factor XI (Homo sapiens, UniProt P03951); experiment: Inhibition of FXIa (unknown origin) using p-Glu-Pro-Arg-pNA.HCl as chromogenic substrate incubated for 20 mins followed by substrate addition by spectrophotometric analysis
Sequence of Coagulation factor XI (P03951 19-387 limits assumed): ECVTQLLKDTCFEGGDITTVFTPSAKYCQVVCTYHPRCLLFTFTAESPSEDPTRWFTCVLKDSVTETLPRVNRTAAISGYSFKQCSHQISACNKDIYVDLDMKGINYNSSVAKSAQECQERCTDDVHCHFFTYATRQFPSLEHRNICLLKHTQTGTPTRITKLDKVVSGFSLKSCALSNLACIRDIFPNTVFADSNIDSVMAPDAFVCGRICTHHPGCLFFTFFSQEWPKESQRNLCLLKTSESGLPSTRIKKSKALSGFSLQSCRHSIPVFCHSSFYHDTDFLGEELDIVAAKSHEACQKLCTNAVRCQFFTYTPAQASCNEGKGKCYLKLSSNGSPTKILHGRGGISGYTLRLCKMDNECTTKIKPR
Sequence of Coagulation factor XI (P03951 388-625 limits assumed): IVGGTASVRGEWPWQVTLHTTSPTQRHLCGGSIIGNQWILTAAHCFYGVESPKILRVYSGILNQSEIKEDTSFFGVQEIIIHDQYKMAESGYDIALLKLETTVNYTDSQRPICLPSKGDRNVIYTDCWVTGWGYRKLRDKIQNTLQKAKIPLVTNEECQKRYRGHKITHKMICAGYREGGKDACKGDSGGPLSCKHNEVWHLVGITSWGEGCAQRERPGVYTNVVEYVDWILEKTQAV

[6] = target: T1, Coagulation factor XII (Homo sapiens); experiment: Covalent inhibition of FXIIa (unknown origin) at 20 to 40 nM measured after 10 mins; conditions: dose 20-40 nM
[7] = Selectivity index, ratio of IC50 for trypsin (unknown origin) to IC50 for FXIIa (unknown origin)
Plasma [8] = experiment: Anticoagulant activity in human plasma assessed as prolongation of […] time at 300 uM incubated for 2 mins by PT reagent based assay relative to control; type: functional
[9] = Selectivity index, ratio of IC50 for FXIa (unknown origin) to IC50 for FXIIa (unknown origin)
[10] = Selectivity index, ratio of IC50 for FXa (unknown origin) to IC50 for FXIIa (unknown origin)
Coagulation factor XII [11] = target: T2, Coagulation factor XII (Homo sapiens, UniProt P00748); experiment: Binding affinity to FXIIa (unknown origin) assessed as inhibition constant using H-D-Pro-Phe-Arg-pNA.2HCl as substrate by spectrophotometric analysis
T2 sequence (P00748 whole entry): T1 sequence (whole entry)

RAW264.7 [12] = experiment: Antiinflammatory activity in mouse RAW264.7 cells assessed as inhibition of LPS-induced IL-6 expression at 10 uM preincubated for 12 hrs followed by LPS stimulation and measured after 12 hrs by real time quantitative RT-PCR assay; type: functional, cell-based; conditions: time 24.0 hrs
Chymotrypsin = Chymotrypsin (Homo sapiens, UniProt Q99895+P17538+P40313+Q6GPI1); experiment: Inhibition of Chymotrypsin (unknown origin) using N-Suc-Ala-Ala-Pro-Phe-pNA as chromogenic substrate incubated for 20 mins followed by substrate addition by spectrophotometric analysis; type: protein assay
[13] = target: T1, Coagulation factor XII (Homo sapiens); experiment: Inhibition of FXIIa (unknown origin) using H-D-Pro-Phe-Arg-pNA as substrate preincubated for 20 mins followed by 100 fold dilution upto 120 mins then substrate addition for 60 mins by jump dilution assay; conditions: time <= 200.0 min
RAW264.7 [14] = experiment: Antiinflammatory activity in mouse RAW264.7 cells assessed as inhibition of LPS-induced IL-1 beta expression at 10 uM preincubated for 12 hrs followed by LPS stimulation and measured after 12 hrs by real time quantitative RT-PCR assay; type: functional, cell-based; conditions: time 24.0 hrs
Coagulation factor XII [15] = target: T2, Coagulation factor XII; experiment: Inhibition of FXIIa (unknown origin) using H-D-Pro-Phe-Arg-pNA as substrate incubated for 20 mins followed by substrate addition by spectrophotometric analysis
Trypsin = Trypsin (Homo sapiens, UniProt P07477+P07478+P35030); experiment: Inhibition of trypsin (unknown origin) using Bz-lle-Glu(gamma-OR)-Gly-Arg-pNA.HCl as chromogenic substrate incubated for 20 mins followed by substrate addition by spectrophotometric analysis; type: protein assay
[16] = Selectivity index, ratio of IC50 for thrombin (unknown origin) to IC50 for FXIIa (unknown origin)
[17] = target: T1, Coagulation factor XII (Homo sapiens); experiment: Binding affinity to FXIIa (unknown origin) assessed as Kinact/Ki using H-D-Pro-Phe-Arg-pNA.2HCl as substrate by spectrophotometric analysis
[18] = Selectivity index, ratio of IC50 for chymotrypsin (unknown origin) to IC50 for FXIIa (unknown origin)
[19] = Selectivity index, ratio of IC50 for plasmin (unknown origin) to IC50 for FXIIa (unknown origin)
[20] = target: Tissue-type plasminogen activator (Homo sapiens, UniProt P00750); experiment: Inhibition of tPA (unknown origin) using H-D-lle-Pro-Arg-pNA-2HCl as chromogenic substrate incubated for 20 mins followed by substrate addition by spectrophotometric analysis
Sequence of Tissue-type plasminogen activator (P00750 whole entry): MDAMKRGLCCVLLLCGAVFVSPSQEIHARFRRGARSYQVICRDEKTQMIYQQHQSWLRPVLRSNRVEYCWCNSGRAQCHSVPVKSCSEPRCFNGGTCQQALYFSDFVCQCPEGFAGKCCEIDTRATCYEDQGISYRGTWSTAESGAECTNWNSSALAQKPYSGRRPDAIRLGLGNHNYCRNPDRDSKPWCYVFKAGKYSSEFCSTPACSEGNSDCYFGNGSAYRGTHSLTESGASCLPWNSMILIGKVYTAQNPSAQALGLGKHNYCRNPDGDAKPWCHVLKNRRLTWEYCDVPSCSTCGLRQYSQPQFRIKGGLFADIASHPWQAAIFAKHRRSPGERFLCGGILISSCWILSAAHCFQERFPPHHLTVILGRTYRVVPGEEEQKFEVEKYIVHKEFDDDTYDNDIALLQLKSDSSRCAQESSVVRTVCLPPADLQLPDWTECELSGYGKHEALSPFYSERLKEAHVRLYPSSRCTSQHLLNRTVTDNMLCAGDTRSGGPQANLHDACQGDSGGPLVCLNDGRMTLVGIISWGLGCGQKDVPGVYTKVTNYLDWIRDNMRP

[21] = Selectivity index, ratio of IC50 for tPA (unknown origin) to IC50 for FXIIa (unknown origin)

## Nc1nc(-c2ccccn2)nn1C(=O)c1cccc2ccccc12
Plasma [1]
  Activity: 303%
Plasma [2]
  EC1.5: 145 µM
Plasma kallikrein
  IC50: > 25000 nM
Prothrombin
  IC50: 360 nM
Plasma [3]
  Activity: inactive
[4]
  Ratio IC50: > 710
[5]
  Kinact: 0.026 min⁻¹
Coagulation factor XI
  IC50: > 25000 nM
[6]
  inhibition: Active
[7]
  Ratio IC50: > 140
Plasma [8]
  Activity: 17%
[9]
  Ratio IC50: > 710
[10]
  Ratio IC50: > 140
Coagulation factor XII [11]
  Ki: 43.5 nM
RAW264.7 [12]
  Activity: Active
Chymotrypsin
  IC50: > 5000 nM
[13]
  inhibition: inactive
RAW264.7 [14]
  Activity: Active
Coagulation factor XII [15]
  IC50: 35 nM
Trypsin
  IC50: > 5000 nM
[16]
  Ratio IC50: 10
[17]
  K: 5.96 10^5/M/min
[18]
  Ratio IC50: > 140
[19]
  Ratio IC50: > 140
[20]
  IC50: > 5000 nM
[21]
  Ratio IC50: > 140

From ChEMBL document CHEMBL5500412, “Discovery of Highly Selective, Potent, Covalent, and Orally Bioavailable Factor XIIa Inhibitors for the Treatment of Thrombo-Inflammation” (J Med Chem, 2024)
